Results taken from ChEMBL document CHEMBL3774360, “Potent multitarget FAAH-COX inhibitors: Design and structure-activity relationship studies” (Eur J Med Chem, 2016).

Key:
[1] = biological target: T1, Fatty-acid amide hydrolase 1 (Rattus norvegicus, UniProt P97612); assay: Inhibition of FAAH in Sprague-Dawley rat brain homogenates preincubated for 10 mins followed by addition of substrate measured after 30 mins by liquid scintillation counting; type: tissue-based
T1 sequence (P97612 whole entry): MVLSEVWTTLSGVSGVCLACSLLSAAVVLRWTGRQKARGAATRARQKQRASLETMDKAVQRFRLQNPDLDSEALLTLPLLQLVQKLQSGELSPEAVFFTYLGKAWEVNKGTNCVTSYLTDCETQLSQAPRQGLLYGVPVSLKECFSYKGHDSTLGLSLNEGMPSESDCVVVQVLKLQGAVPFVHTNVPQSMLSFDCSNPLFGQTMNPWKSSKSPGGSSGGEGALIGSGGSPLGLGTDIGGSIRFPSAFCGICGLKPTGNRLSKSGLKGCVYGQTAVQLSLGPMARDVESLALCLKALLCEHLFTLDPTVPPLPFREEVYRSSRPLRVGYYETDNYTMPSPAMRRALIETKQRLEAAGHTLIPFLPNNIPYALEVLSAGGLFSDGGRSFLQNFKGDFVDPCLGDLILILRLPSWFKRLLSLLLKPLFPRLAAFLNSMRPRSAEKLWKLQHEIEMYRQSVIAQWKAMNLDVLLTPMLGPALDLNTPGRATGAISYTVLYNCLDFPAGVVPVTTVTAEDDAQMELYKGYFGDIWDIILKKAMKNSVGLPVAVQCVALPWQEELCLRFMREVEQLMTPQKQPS

[2] = biological target: T2, Prostaglandin G/H synthase 1 (Ovis aries, UniProt P05979); assay: Inhibition of ovine COX1 assessed as production of PGF2-alpha preincubated with compound followed by the addition of 5 uM arachidonic acid as substrate by enzyme immunoassay
T2 sequence (P05979 whole entry): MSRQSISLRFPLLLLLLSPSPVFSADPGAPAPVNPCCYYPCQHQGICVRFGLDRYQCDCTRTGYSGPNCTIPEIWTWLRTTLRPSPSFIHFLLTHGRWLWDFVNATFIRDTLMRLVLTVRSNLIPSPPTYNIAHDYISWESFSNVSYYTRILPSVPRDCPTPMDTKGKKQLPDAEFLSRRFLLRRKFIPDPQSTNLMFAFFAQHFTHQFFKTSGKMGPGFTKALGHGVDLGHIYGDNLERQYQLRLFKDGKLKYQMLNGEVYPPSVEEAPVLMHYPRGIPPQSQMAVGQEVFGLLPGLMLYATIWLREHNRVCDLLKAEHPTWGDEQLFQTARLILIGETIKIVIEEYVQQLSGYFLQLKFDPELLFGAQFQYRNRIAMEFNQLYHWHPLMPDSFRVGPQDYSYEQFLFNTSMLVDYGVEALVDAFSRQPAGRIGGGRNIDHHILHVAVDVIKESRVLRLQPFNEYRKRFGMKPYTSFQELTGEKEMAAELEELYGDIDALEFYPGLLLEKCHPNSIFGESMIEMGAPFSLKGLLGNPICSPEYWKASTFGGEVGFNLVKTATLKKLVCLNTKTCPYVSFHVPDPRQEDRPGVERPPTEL

[3] = biological target: T3, Prostaglandin G/H synthase 2 (Homo sapiens, UniProt P35354); assay: Inhibition of recombinant human COX2 assessed as production of PGF2-alpha preincubated with compound followed by the addition of 5 uM arachidonic acid as substrate by enzyme immunoassay
T3 sequence (P35354 whole entry): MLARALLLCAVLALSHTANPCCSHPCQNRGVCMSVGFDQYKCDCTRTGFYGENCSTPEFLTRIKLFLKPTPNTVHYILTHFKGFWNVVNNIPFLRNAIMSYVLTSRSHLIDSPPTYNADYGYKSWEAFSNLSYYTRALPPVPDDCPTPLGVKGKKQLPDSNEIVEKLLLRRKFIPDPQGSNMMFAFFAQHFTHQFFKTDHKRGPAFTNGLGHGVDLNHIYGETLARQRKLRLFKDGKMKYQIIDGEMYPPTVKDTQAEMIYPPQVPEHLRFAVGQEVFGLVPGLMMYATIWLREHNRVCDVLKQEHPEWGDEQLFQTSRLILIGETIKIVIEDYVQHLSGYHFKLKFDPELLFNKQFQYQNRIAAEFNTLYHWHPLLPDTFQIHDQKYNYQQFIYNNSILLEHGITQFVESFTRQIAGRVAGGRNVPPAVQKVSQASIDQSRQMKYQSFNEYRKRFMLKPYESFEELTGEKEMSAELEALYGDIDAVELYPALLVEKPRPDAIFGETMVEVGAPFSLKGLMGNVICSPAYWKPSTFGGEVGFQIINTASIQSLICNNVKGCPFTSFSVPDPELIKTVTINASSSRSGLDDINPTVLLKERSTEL

| SMILES | IC50 [1] | IC50 [2] | IC50 [3] |
| --- | --- | --- | --- |
| CCCCCCNC(=O)Oc1cccc(-c2ccc(C(C)C(=O)OC)cc2F)c1 (racemic) | 52 nM | > 100000 nM | > 100000 nM |
| CCCNC(=O)Oc1cccc(-c2ccc(C(C)C(=O)O)cc2F)c1 (racemic) | > 100000 nM | 1650 nM | > 100000 nM |
| CC(C(=O)O)c1ccc(-c2cccc(OC(=O)NC3CCCCC3)c2)c(F)c1 (racemic) |  |  | > 100000 nM |
| CCCCCCNC(=O)Oc1cccc(-c2ccc(C(C)C(=O)O)cc2C(F)(F)F)c1 (racemic) | 5 nM | 10 nM | 200 nM |
| CCCCCCNC(=O)Oc1cccc(-c2ccc(C(C)C(=O)O)cc2Cl)c1 (racemic) | 23 nM | 9 nM | 730 nM |
| CC(C(=O)O)c1ccc(-c2cccc(OC(=O)NCC3CCCCC3)c2)c(F)c1 (racemic) |  |  | > 100000 nM |
| CCCCCCNC(=O)Oc1ccccc1-c1ccc(C(C)C(=O)O)cc1F (racemic) |  |  | > 100000 nM |
| CC(C)NC(=O)Oc1cccc(-c2ccc(C(C)C(=O)O)cc2F)c1 (racemic) | > 100000 nM | 3900 nM | > 100000 nM |
| CC(C(=O)O)c1ccc(-c2cccc(OC(=O)NCc3ccccc3)c2)c(F)c1 (racemic) |  |  | > 100000 nM |
| CCCCCCNC(=O)Oc1cccc(-c2ccc(C(C)C(=O)O)cc2C)c1 (racemic) | 10 nM | 11 nM | 1400 nM |
| CCCCCCNC(=O)Oc1ccc(-c2ccc(C(C)C(=O)O)cc2F)cc1 (racemic) | 68 nM | > 100000 nM | > 100000 nM |
| CCCCCCNC(=O)Oc1cccc(-c2ccc(C(C)C(=O)O)cc2O)c1 (racemic) | 35 nM | 650 nM | 13000 nM |
| NC(=O)c1cccc(-c2cccc(OC(=O)NC3CCCCC3)c2)c1 [URB-597] |  | > 100000 nM | > 100000 nM |
| CCNC(=O)Oc1cccc(-c2ccc(C(C)C(=O)O)cc2F)c1 (racemic) | > 100000 nM | 2100 nM | > 100000 nM |
| CC(C(=O)O)c1ccc(-c2cccc(OC(=O)NCCCCc3ccccc3)c2)c(F)c1 (racemic) |  |  | > 100000 nM |
| CCCCCCNC(=O)Oc1cccc(-c2ccc(C(C)CO)cc2F)c1 (racemic) | 3 nM |  | > 100000 nM |

| SMILES | IC50 [1] | IC50 [2] | IC50 [3] |
| --- | --- | --- | --- |
| CCCCCCNC(=O)Oc1cccc(-c2ccc(C(C)C(=O)O)cc2N)c1 (racemic) | 49 nM | 220 nM | 12100 nM |
| CCCCCCNC(=O)Oc1cccc(-c2ccc(C(C)C(=O)O)cc2)c1 (racemic) | 3 nM | 54 nM | 690 nM |
| CC(C(=O)O)c1ccc(-c2cccc(OC(=O)Nc3ccccc3)c2)c(F)c1 (racemic) | 41200 nM | 270 nM | 2700 nM |
| CCCCCCNC(=O)Oc1cccc(-c2ccc(C(=O)O)cc2F)c1 | 85 nM | > 100000 nM | > 100000 nM |
| CCCCNC(=O)Oc1cccc(-c2ccc(C(C)C(=O)O)cc2F)c1 (racemic) |  |  | > 100000 nM |
| CCCCCCCCNC(=O)Oc1cccc(-c2ccc(C(C)C(=O)O)cc2F)c1 (racemic) | 3 nM |  |  |
| CCCCCCNC(=O)Oc1cccc(-c2ccc(C(C)C(=O)O)cc2[N+](=O)[O-])c1 (racemic) | 9 nM | 130 nM | 930 nM |
| CC(C)CNC(=O)Oc1cccc(-c2ccc(C(C)C(=O)O)cc2F)c1 (racemic) | 4100 nM |  | > 100000 nM |
| CCCCCCNC(=O)Oc1cccc(-c2ccc([C@@H](C)C(=O)O)cc2F)c1 |  | 4000 nM |  |
| CC(C(=O)O)c1ccc(-c2cccc(OC(=O)NC3CCC3)c2)c(F)c1 (racemic) | 48700 nM | 720 nM | > 100000 nM |
| CC(C(=O)O)c1ccc(-c2ccccc2)c(F)c1 (stereo unspecified) [FLURBIPROFEN] | > 100000 nM |  |  |
| CC(C(=O)O)c1ccc(-c2cccc(OC(=O)NCCc3ccccc3)c2)c(F)c1 (racemic) |  |  | > 100000 nM |
| CC(C(=O)O)c1ccc(-c2cccc(OC(=O)NC3CC3)c2)c(F)c1 (racemic) | > 100000 nM | 5400 nM | 74300 nM |
| CC(C(=O)O)c1ccc(-c2cccc(OC(=O)NC3CCCC3)c2)c(F)c1 (racemic) |  |  | > 100000 nM |
| CCCCCCNC(=O)Nc1cccc(-c2ccc(C(C)C(=O)O)cc2F)c1 (racemic) | 88400 nM | 14 nM | 560 nM |
| CCCCCCNC(=O)Oc1cccc(-c2ccc(C)cc2F)c1 | 26 nM | > 100000 nM | > 100000 nM |
